Reference: US9035056B2, “Pyrido[4,3-b]indole and pyrido[3,4-b]indole derivatives and methods of use” (Medivation Technologies, Inc., priority 2011, dated 2015)

Legend:
[1] = target: T1, rat adrenergic α1B receptor (Rattus norvegicus, UniProt P15823); assay: Adrenergic α1B radioligand binding ([3H]Prazosin); settings: 0.1 μM compound; for Percentage inhibition of ligand binding, Adrenergic α1B: 0.1 µM; for inhibition at 0.1 µM: read-out: Percentage inhibition of ligand binding, Adrenergic α1B
T1 construct: rat adrenergic α1B receptor obtained from Wistar Rat liver; from tissue; host or cells: Wistar rat liver
T1 sequence (P15823 1-515): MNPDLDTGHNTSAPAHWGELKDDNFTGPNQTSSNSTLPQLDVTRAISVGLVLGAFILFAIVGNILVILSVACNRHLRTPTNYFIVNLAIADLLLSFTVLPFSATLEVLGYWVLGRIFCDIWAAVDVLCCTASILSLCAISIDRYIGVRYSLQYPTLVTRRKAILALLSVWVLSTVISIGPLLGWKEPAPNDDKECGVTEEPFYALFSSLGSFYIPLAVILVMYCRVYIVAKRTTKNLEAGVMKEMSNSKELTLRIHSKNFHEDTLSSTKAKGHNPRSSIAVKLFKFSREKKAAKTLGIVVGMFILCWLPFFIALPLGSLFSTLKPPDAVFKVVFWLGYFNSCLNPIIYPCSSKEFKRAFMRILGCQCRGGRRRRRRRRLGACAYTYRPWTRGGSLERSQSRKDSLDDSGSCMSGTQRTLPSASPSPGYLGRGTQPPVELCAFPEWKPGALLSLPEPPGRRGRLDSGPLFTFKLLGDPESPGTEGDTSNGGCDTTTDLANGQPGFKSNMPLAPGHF
Protocol: To evaluate in radioligand binding assays the activity of compounds of the invention, rat adrenergic α1B receptor obtained from Wistar Rat liver (Garcia-S'ainz, J. et al, Biochem. Biophys. Res. Commun. 186:760, 1992; Michel, A. et al, Br. J. Pharmacol. 98:883, 1989) in a modified Tris-HCl buffer (50 mM Tris-HCl buffer, pH 7.4, 0.5 mM EDTA) was used. Compounds of the invention were incubated with 0.25 nM [^3H]Prazosin for 60 min at 25° C. Non-specific binding was estimated in the presence of 10 μM phentolamine. Receptor proteins were filtered and washed, the filters were then counted to determine [^3H]Prazosin specifically bound. Compounds were screened at 1 μM or lower, using 1% DMSO as vehicle. Biochemical assay results are presented as the percent inhibition of specific binding in Table 3.

[2] = target: T2, human recombinant serotonin (5-Hydroxytryptamine) 5-HT2C receptor (Homo sapiens, UniProt P28335); assay: Serotonin 5-HT2C radioligand binding ([3H]Mesulergine); settings: 0.1 μM compound; for Percentage inhibition of ligand binding, Serotonin 5-HT2C: 0.1 µM; for inhibition at 0.1 µM: read-out: Percentage inhibition of ligand binding, Serotonin 5-HT2C
T2 construct: expressed in transfected cells; host or cells: CHO-K1
T2 sequence (P28335 33-458): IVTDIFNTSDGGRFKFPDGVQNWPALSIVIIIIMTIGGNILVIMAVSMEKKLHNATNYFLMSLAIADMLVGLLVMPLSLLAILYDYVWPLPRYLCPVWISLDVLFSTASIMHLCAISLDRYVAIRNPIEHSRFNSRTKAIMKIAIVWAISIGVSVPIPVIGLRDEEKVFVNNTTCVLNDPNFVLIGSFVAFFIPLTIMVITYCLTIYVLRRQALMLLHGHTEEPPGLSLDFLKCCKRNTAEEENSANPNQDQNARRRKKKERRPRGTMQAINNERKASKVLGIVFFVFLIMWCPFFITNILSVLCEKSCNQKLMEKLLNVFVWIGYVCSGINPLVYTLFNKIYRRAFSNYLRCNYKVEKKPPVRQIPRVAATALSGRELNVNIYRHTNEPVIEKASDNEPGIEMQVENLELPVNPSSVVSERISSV
Protocol: To evaluate in radioligand binding assays the activity of compounds of the invention, human recombinant serotonin (5-Hydroxytryptamine) 5-HT2C receptor expressed in Chinese hamster ovary (CHO) K1 cells (Wolf, W. et al, J. Neurochem. 69:1449, 1997) in a modified Tris-HCl buffer (50 mM Tris-HCl, pH 7.4, 0.1% Ascorbic Acid, 10 μM Pargyline) was used. Compounds of the invention were incubated with 1 nM [^3H]Mesulergine for 60 min at 25° C. Non-specific binding was estimated in the presence of 1 μM Mianserin. Receptor proteins were filtered and washed, the filters were then counted to determine [^3H]Mesulergine specifically bound. Compounds were screened at 1 μM or lower, using 1% DMSO as vehicle. Biochemical assay results are presented as the percent inhibition of specific binding in Table 5.

[3] = target: T3, human recombinant dopamine D2L receptor (Homo sapiens, UniProt P14416); assay: Dopamine D2L radioligand binding ([3H]Spiperone); settings: 1 μM compound; read-out: Percentage inhibition of ligand binding, Dopamine D2L
T3 construct: expressed in transfected cells; host or cells: CHO
Protocol: To evaluate in radioligand binding assays the activity of compounds of the invention, human recombinant dopamine D2L receptor expressed in Chinese hamster ovary (CHO) cells (Grandy, D. et al, Proc. Natl. Acad. Sci. USA. 86:9762, 1989; Hayes, G. et al, Mol. Endocrinol. 6:920, 1992) in a modified Tris-HCl buffer (50 mM Tris-HCl, pH 7.4, 1.4 mM Ascorbic Acid, 0.001% BSA, 150 mM NaCl) was used. Compounds of the invention were incubated with 0.16 nM [^3H]Spiperone for 120 min at 25° C. Non-specific binding was estimated in the presence of 10 μM Haloperidol. Receptor proteins were filtered and washed, the filters were then counted to determine [^3H]Spiperone specifically bound. Compounds were screened at 1 μM or lower, using 1% DMSO as vehicle. Biochemical assay results are presented as the percent inhibition of specific binding in Table 4.

T3 sequence (P14416 whole entry): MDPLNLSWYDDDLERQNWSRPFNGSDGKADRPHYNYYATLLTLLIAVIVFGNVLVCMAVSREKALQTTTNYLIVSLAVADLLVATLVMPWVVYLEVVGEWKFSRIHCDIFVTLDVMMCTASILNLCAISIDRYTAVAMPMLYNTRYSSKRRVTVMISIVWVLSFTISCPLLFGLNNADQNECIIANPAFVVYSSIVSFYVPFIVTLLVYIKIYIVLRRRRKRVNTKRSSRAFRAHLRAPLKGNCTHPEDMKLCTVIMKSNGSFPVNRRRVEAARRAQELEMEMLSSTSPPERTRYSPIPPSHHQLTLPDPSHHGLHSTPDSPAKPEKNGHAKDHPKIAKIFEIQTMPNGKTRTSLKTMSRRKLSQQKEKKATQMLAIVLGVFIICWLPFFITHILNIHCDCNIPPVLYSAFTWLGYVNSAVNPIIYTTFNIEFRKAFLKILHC

Row | Compound | Percentage inhibition of ligand binding, Adrenergic α1B [1] | Percentage inhibition of ligand binding, Serotonin 5-HT2C [2] | inhibition at 0.1 µM [1] | inhibition at 0.1 µM [2] | inhibition at 1 µM [3]
1 | Cc1ccc2c(c1)c1c(n2CC2(O)CCCc3cnccc32)CCN(C)C1 (single isomer, unassigned) [ii-74a] | 12% | 28% | – | – | –
2 | Cc1ccc2c(c1)c1c(n2/C=C2\CCCc3ccccc32)CCN(C)C1 [i-3] | – | – | 66% | 100% | 49%
3 | Cc1ccc2c(c1)c1c(n2/C=C2/CCCc3ccccc32)CCN(C)C1 [i-2] | – | – | 85% | 100% | 47%
4 | Cc1ccc2c(c1)c1c(n2CC2(O)CCCc3cnccc32)CCN(C)C1 (single isomer, unassigned) [ii-74b] | 83% | 53% | – | – | –

Now from value to compound, other results behind:

Row | Percentage inhibition of ligand binding, Adrenergic α1B [1] | Percentage inhibition of ligand binding, Serotonin 5-HT2C [2] | Compound | inhibition at 0.1 µM [1] | inhibition at 0.1 µM [2] | inhibition at 1 µM [3]
5 | 14% | 37% | Cc1ccc2c(c1)c1c(n2CC2(O)CCCc3ncccc32)CCN(C)C1 (single isomer, unassigned) [ii-112b] | – | – | –
6 | 5% | – | Cc1ccc2c(c1)c1c(n2CC2(O)CCCc3ccncc32)CCN(C)C1 (single isomer, unassigned) [ii-113a] | – | 37% | –
7 | 79% | – | Cc1ccc2c(c1)c1c(n2CC2(O)CCCc3ncccc32)CCN(C)C1 (single isomer, unassigned) [ii-112a] | – | 42% | –
